For data set [1], the system named is ALP (alkaline phosphatase). Briefly: ALP activity analysis. The class given is cell-based. As to conditions: within the concentration gradient (FIG. 9 and FIG. 10).
In the next data set the test system is calvaria. Briefly: Calvaria thickness measurement, gallocatechin and methyl vanillate treatment. The class given is cell-based. The note with it: calvaria of 4-day-old postnatal mice under differentiation, one week (FIG. 7). How it is done:
While inducing the differentiation in the calvaria of 4-day-old postnatal mice supplied by Orient Bio. 2 nM of gallocatechin and 0.2 nM of methyl vanillate were treated for one week.

A further data set deals with SD-based rat. As to conditions: single oral dose of 1 g/kg. On the procedure:
6-week old specific pathogen-free (SPF) SD-based rat supplied from the DAEHAN Experiment Supply Center was used and the acute toxicity experiments were conducted as follows.
The animal mortality, clinical symptoms, and change in the body weight were observed and then hematologic testing and blood biochemical tests were conducted.

For data set [2], the system named is ALP (alkaline phosphatase) in primary osteoblast (POB) cells. Briefly: ALP staining in differentiated primary osteoblast cells. The note with it: 20 μM, differentiated and stained for 9 days (FIG. 8). Type of data set: cell-based. How it is done: In addition, in order to confirm the activity of ALP (alkaline phosphatase) showing the activation of bones, 20 μM of gallocatechin was treated with primary osteoblast (POB) cells, and allowed to differentiate and stain for 9 days.

We go through two compounds from US11219656B2 (Industry-Academic Cooperation Foundation, Yonsei University, priority 2011, dated 2022).

Take `COC(=O)c1ccc(O)c(OC)c1` [methyl vanillate]: the “activity of ALP” value in data set [1] is recorded as “increased”. Also, the “thickness of the calvaria” value in the data set on calvaria (0.2 nM methyl vanillate) was “increased”.

Consider `Oc1cc(O)c2c(c1)O[C@H](c1cc(O)c(O)c(O)c1)[C@@H](O)C2` [gallocatechin], for which, in data set [1], the “activity of ALP” value is given as “increased”. The “thickness of the calvaria” value in the data set with calvaria (2 nM gallocatechin) is given as “increased”. Besides, in the data set with SD-based rat, the “specific clinical symptoms and died animals” value is reported as “not found”; the “toxic changes in body weight, blood tests, blood biochemical tests and autopsy findings” value is “not observed”. Moreover, the “expression of ALP (staining)” value in data set [2] was “increased”.
